Molecular target: T1, recombinant human NAE enzyme (Homo sapiens, UniProt Q8TBC4)
T1 construct: His (N); made in house; host or cells: Sf9 insect cells (baculovirus, Bac-to-Bac)
T1 sequence (Q8TBC4 1-463): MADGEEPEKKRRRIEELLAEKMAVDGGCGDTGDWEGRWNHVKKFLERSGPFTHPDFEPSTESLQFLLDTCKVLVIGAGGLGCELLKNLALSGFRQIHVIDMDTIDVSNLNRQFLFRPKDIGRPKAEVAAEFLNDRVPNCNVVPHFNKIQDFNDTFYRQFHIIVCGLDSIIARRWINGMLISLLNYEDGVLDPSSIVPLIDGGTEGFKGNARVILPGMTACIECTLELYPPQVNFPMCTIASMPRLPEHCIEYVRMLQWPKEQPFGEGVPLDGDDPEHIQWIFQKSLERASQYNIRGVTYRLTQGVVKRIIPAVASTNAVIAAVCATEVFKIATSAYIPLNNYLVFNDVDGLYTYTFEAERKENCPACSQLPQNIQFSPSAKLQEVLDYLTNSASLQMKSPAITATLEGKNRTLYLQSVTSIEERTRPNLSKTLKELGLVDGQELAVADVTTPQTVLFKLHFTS
T1 sequence (Q13564 1-534 partner): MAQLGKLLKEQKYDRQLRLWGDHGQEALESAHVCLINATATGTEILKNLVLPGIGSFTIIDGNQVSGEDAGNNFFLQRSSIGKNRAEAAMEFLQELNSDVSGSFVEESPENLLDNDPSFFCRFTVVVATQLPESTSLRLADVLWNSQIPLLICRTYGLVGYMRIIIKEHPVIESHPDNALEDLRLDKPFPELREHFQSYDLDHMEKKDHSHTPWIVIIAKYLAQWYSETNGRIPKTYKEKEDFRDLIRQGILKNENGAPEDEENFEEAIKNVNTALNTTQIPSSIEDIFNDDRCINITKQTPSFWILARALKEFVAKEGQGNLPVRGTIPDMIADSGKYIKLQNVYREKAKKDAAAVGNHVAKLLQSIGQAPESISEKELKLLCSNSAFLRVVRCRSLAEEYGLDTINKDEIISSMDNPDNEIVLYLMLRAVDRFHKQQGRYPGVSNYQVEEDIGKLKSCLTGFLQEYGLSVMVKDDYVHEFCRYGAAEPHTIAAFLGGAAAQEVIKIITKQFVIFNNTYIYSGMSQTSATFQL
Assay: Nedd8-Activating Enzyme (NAE) HTRF Assay
Type: biochemical
Settings: 20 μM ATP
Experimental: Following manufacturer instructions, baculoviruses were generated with the Bac-to-Bac Expression System (Invitrogen) for the following proteins: untagged NAEα (APPBP1; NP_003896.1), N-terminally His-tagged NAEJ (UBE1C; NP_003959.3), untagged SAEα (SAE1; NP_005491.1), N-terminally His-tagged SAE3 (UBA2; NP_005490.1), N-terminally His-tagged murine UAE (UBE1X; NP_033483). NAEα/His-NAEβ and SAEα/His-SAEβ complexes were generated by co-infection of Sf9 cells, which were harvested after 48 hours. His-mUAE was generated by single infection of Sf9 cells and harvested after 72 hours. Expressed proteins were purified by affinity chromatography (Ni-NTA agarose, Qiagen) using standard buffers. Nedd8-Activating Enzyme (NAE) HTRF Assay. The NAE enzymatic reaction totaled 50 μL and contained 50 mM HEPES (pH 7.5), 0.05% BSA, 5 mM MgCl2, 20 μM ATP, 250 μM GSH, 0.01 μM Ubc12-GST, 0.075 μM Nedd8-Flag and 0.20 nM recombinant human NAE enzyme. The enzymatic reaction mixture, with and without compound inhibitor, was incubated at room temperature 24° C. for 105 minutes in a 384-well plate before termination with 25 μL of Stop/Detection buffer (0.1M HEPES pH 7.5, 0.05% Tween20, 20 mM EDTA, 410 mM KF, 0.53 nM Europium-Cryptate labeled monoclonal anti-FLAG M2 antibody (CisBio International) and 8.125 μg/mL PHYCOLINK goat anti-GST allophycocyanin (XL-APC) antibody (Prozyme)). After incubation for 1 hour at 24° C., quantification of the FRET was performed on the Analyst™ HT 96.384 (Molecular Devices).

Row | IC50 (bound given in nM) [nM] | IC50 (bound given in μM) [nM] | Structure (SMILES)
1 | > 500 | < 10000 | NS(=O)(=O)OC[C@@H]1C[C@@H](Nc2cc(CCc3ccccc3)ncn2)C[C@@H]1O [Compound I-81, ((1S,2S,4R)-2-hydroxy-4-{[6-(2-phenylethyl)pyrimidin-4-yl]amino}cyclopentyl)methyl sulfamate]
2 | ≤ 500 | – | NS(=O)(=O)OC[C@@H]1C[C@@H](Oc2ncnc3nc(-c4c[nH]c5ccccc45)[nH]c23)C[C@@H]1O [Compound I-140, ((1S,2S,4R)-2-hydroxy-4-{[8-(1H-indol-3-yl)-7H-purin-6-yl]oxy}cyclopentyl)methyl sulfamate]
3 | ≤ 500 | – | NS(=O)(=O)OC[C@@H]1C[C@@H](Nc2ncnc3[nH]c(-c4ccccc4OC(F)(F)F)nc23)C[C@@H]1O [Compound I-62, [(1S,2S,4R)-2-hydroxy-4-({8-[2-(trifluoromethoxy)phenyl]-9H-purin-6-yl}-amino)cyclopentyl]methyl sulfamate]
4 | ≤ 500 | – | NS(=O)(=O)OC[C@@H]1C[C@@H](Oc2ncnc3nc(-c4cncc5ccccc45)[nH]c23)C[C@@H]1O [Compound I-112, {(1S,2S,4R)-2-hydroxy-4-[(8-isoquinolin-4-yl-7H-purin-6-yl)oxy]cyclopentyl}methyl sulfamate]
5 | ≤ 500 | – | NS(=O)(=O)OC[C@@H]1C[C@@H](Nc2ncnc3nc(-c4ccc(OCc5ccccc5)cc4)[nH]c23)C[C@@H]1O [Compound I-102, [(1S,2S,4R)-4-({8-[4-(benzyloxy)phenyl]-7H-purin-6-yl}amino)-2-hydroxycyclopentyl]methyl sulfamate]
6 | > 500 | < 10000 | CO[C@@H]1Cc2ccccc2[C@@H]1Oc1cc(O[C@@H]2C[C@@H](COS(N)(=O)=O)[C@@H](O)C2)ncn1 [Compound I-98, {(1S,2S,4R)-2-hydroxy-4-[(6-{[(1S,2R)-2-methoxy-2,3-dihydro-1H-inden-1-yl]oxy}-pyrimidin-4-yl)oxy]cyclopentyl}methyl sulfamate]
7 | – | > 10000 | NS(=O)(=O)OC[C@@H]1C[C@@H](Oc2cc(N3CCc4ccccc4C3)ncn2)C[C@@H]1O [Compound I-61, ((1S,2S,4R)-4-{[6-(3,4-dihydroisoquinolin-2(1H)-yl)pyrimidin-4-yl]oxy}-2-hydroxycyclopentyl)methyl sulfamate]
8 | > 500 | < 10000 | NS(=O)(=O)OC[C@H]1C[C@@H](Nc2nc(N[C@H]3CCc4ccccc43)ncc2F)[C@H](O)[C@@H]1O [Compound I-113, [(1R,2R,3S,4R)-4-({2-[(1S)-2,3-dihydro-1H-inden-1-ylamino]-5-fluoropyrimidin-4-yl}-amino)-2,3-dihydroxycyclopentyl]methyl sulfamate]
9 | ≤ 500 | – | CC1(C)C[C@H](Nc2ncnc(N[C@@H]3C[C@@H](COS(N)(=O)=O)[C@@H](O)C3)c2F)c2ccccc21 [Compound I-71, {(1S,2S,4R)-4-[(6-{[(1S)-3,3-dimethyl-2,3-dihydro-1H-inden-1-yl]amino}-5-fluoropyrimidin-4-yl)amino]-2-hydroxycyclopentyl}methyl sulfamate]
10 | ≤ 500 | – | NS(=O)(=O)OC[C@@H]1C[C@@H](Nc2ncnc3[nH]c(C4CCCc5ccccc54)nc23)C[C@@H]1O (stereo partly drawn) [Compound I-121, ((1S,2S,4R)-2-hydroxy-4-{[8-(1,2,3,4-tetrahydronaphthalen-1-yl)-9H-purin-6-yl]amino}cyclopentyl)methyl sulfamate]
11 | ≤ 500 | – | NS(=O)(=O)OC[C@@H]1C[C@@H](Nc2ncnc3oc(-c4ccccc4)nc23)C[C@@H]1O [Compound I-90, {(1S,2S,4R)-2-hydroxy-4-[(2-phenyl[1,3]oxazolo[5,4-d]pyrimidin-7-yl)amino]cyclopentyl}methyl sulfamate]
12 | ≤ 500 | – | Cc1nc(N[C@H]2CCc3ccccc32)cc(N[C@@H]2C[C@H](COS(N)(=O)=O)[C@@H](O)[C@H]2O)n1 [Compound I-18, [(1R,2R,3S,4R)-4-({6-[(1S)-2,3-dihydro-1H-inden-1-ylamino]-2-methylpyrimidin-4-yl}-amino)-2,3-dihydroxycyclopentyl]methyl sulfamate]
13 | ≤ 500 | – | COc1ccccc1-c1nc2c(N[C@@H]3C[C@@H](COS(N)(=O)=O)[C@@H](O)C3)ncnc2[nH]1 [Compound I-133, ((1S,2S,4R)-2-hydroxy-4-{[8-(2-methoxyphenyl)-9H-purin-6-yl]amino}cyclopentyl)methyl sulfamate]
14 | ≤ 500 | – | NS(=O)(=O)OC[C@H]1C[C@@H](Nc2cc(NCc3ccccc3)ncn2)[C@H](O)[C@@H]1O [Compound I-27, ((1R,2R,3S,4R)-4-{[6-(benzylamino)pyrimidin-4-yl]amino}-2,3-dihydroxycyclopentyl)-methyl sulfamate]
15 | ≤ 500 | – | NS(=O)(=O)OC[C@@H]1C[C@@H](Nc2ncnc3[nH]c(-c4ccccc4)cc23)C[C@@H]1O [Compound I-38, {(1S,2S,4R)-2-hydroxy-4-[(6-phenyl-7H-pyrrolo[2,3-d]pyrimidin-4-yl)-amino]cyclopentyl}methyl sulfamate]
16 | ≤ 500 | – | CC1CC(Nc2nccc(N[C@@H]3C[C@H](COS(N)(=O)=O)[C@@H](O)[C@H]3O)n2)c2ccccc21 (stereo partly drawn) [Compound I-10, [(1R,2R,3S,4R)-2,3-dihydroxy-4-({2-[(3-methyl-2,3-dihydro-1H-inden-1-yl)-amino]pyrimidin-4-yl}amino)cyclopentyl]methyl sulfamate]
17 | ≤ 500 | – | COc1cccc(-c2nc3c(N[C@@H]4C[C@@H](COS(N)(=O)=O)[C@@H](O)C4)ncnc3[nH]2)c1 [Compound I-99, ((1S,2S,4R)-2-hydroxy-4-{[8-(3-methoxyphenyl)-9H-purin-6-yl]amino}cyclopentyl)methyl sulfamate]
18 | ≤ 500 | – | NS(=O)(=O)OC[C@@H]1C[C@@H](Nc2ncnc3[nH]c(-c4cccc5c4OCCO5)nc23)C[C@@H]1O [Compound I-41, ((1S,2S,4R)-4-{[8-(2,3-dihydro-1,4-benzodioxin-5-yl)-9H-purin-6-yl]amino}-2-hydroxycyclopentyl)methyl sulfamate]
19 | > 500 | < 10000 | NS(=O)(=O)OC[C@@H]1C[C@@H](Cc2cc(N[C@H]3CCc4ccccc43)ncn2)C[C@@H]1O [Compound I-33, [(1S,2S,4S)-4-({6-[(1S)-2,3-dihydro-1H-inden-1-ylamino]pyrimidin-4-yl}methyl)-2-hydroxycyclopentyl]methyl sulfamate]
20 | ≤ 500 | – | NS(=O)(=O)OC[C@H]1C[C@@H](Nc2cc(NCC3CCCCC3)ncn2)[C@H](O)[C@@H]1O [Compound I-14, [(1R,2R,3S,4R)-4-({6-[(cyclohexylmethyl)amino]pyrimidin-4-yl}amino)-2,3-dihydroxycyclopentyl]methyl sulfamate]
21 | ≤ 500 | – | NS(=O)(=O)OC[C@H]1C[C@@H](Nc2cc(Nc3cccc4c3CCCC4)ncn2)[C@H](O)[C@@H]1O [Compound I-118, ((1R,2R,3S,4R)-2,3-dihydroxy-4-{[6-(5,6,7,8-tetrahydronaphthalen-1-ylamino)pyrimidin-4-yl]amino}cyclopentyl)methyl sulfamate]
22 | > 500 | < 10000 | COc1ccc2c(c1)[C@@H](Nc1cc(O[C@@H]3C[C@@H](COS(N)(=O)=O)[C@@H](O)C3)ncn1)[C@@H](OC)CC2 [Compound I-149, {(1S,2S,4R)-4-[(6-{[(1R,2S)-2,7-dimethoxy-1,2,3,4-tetrahydronaphthalen-1-yl]amino}-pyrimidin-4-yl)oxy]-2-hydroxycyclopentyl}methyl sulfamate]
